Reference: PubChem BioAssay (NCI)
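Results reflect a 48-hour exposure of cells in 96-well plates to compound at five concentrations. TGI: total growth inhibition.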

Assays:
Assay in all cases: growth of human tumour cells (NCI), 48 h
[1] = test system: A549 NSCLC
[2] = test system: RPMI-8226 leukemia
[3] = test system: COLO 205 colon
[4] = test system: DMS 114 small cell lung
[5] = test system: ACHN renal
[6] = test system: IGROV1 ovarian
[7] = test system: OVCAR-5 ovarian
[8] = test system: DMS 273 small cell lung
[9] = test system: SK-MEL-5 melanoma
[10] = test system: OVCAR-3 ovarian
[11] = test system: HL-60(TB) leukemia
[12] = test system: RXF 393 renal
[13] = test system: M19-MEL melanoma
[14] = test system: SK-OV-3 ovarian
[15] = test system: SNB-19 CNS
[16] = test system: OVCAR-4 ovarian
[17] = test system: NCI-H460 lung
[18] = test system: OVCAR-8 ovarian
[19] = test system: EKVX NSCLC
[20] = test system: HOP-62 NSCLC
[21] = test system: CCRF-CEM leukemia
[22] = test system: LOX IMVI melanoma
[23] = test system: A498 renal
[24] = test system: CAKI-1 renal
[25] = test system: UACC-62 melanoma
[26] = test system: U251 CNS
[27] = test system: K-562 leukemia
[28] = test system: LXFL 529 NSCLC
[29] = test system: NCI-H226 lung
[30] = test system: KM20L2 colon
[31] = test system: SF-539 CNS
[32] = test system: NCI-H23 lung
[33] = test system: XF 498 CNS
[34] = test system: UACC-257 melanoma
[35] = test system: KM12 colon
[36] = test system: NCI-H522 lung
[37] = test system: HOP-18 NSCLC
[38] = test system: SNB-78 CNS
[39] = test system: M14 melanoma
[40] = test system: SW-620 colon
[41] = test system: 786-0 renal
[42] = test system: MOLT-4 leukemia
[43] = test system: SK-MEL-28 melanoma
[44] = test system: SN12C renal
[45] = test system: HCC-2998 colon
[46] = test system: HCT-15 colon
[47] = test system: HT29 colon
[48] = test system: HOP-92 NSCLC
[49] = test system: SF-268 CNS
[50] = test system: SNB-75 CNS
[51] = test system: DLD-1 colon
[52] = test system: RXF-631 renal
[53] = test system: MALME-3M melanoma
[54] = test system: TK-10 renal
[55] = test system: SF-295 CNS
[56] = test system: UO-31 renal
[57] = test system: SK-MEL-2 melanoma
[58] = test system: HCT-116 colon

Measured: TGI

O=c1oc2ccccc2[n+]([O-])c1-c1ccccc1
> 100 µM: all assays above
